Source: patent US6506913B2, “Dimethylfurancarboxyanilide derivatives” (Sankyo Company, Limited, priority 1994, dated 2003)

Tests used:
Format in all cases: cell-based
Coriolus versicolor [1] = assay: Minimum inhibitory concentration by the agar dilution method; details: potato dextrose agar, 25° C., 5 days
Text: (§1) Assay of minimum inhibitory concentration by the agar dilution method.
(§2) According to the agar dilution method, on sterilized media (potato dextrose agar medium; potato extract powder 0.4%, glucose 2%, agar 1.5%) prepared to contain certain concentrations of a test sample, flora (about 4 mm in diameter) of wood rotting fungi, Coriolus versicolor and Tyromyces palustris, which has been cultured previously on the same kind of medium, were inoculated.
(§3) Whether there is any potentiation or not has been described in Applied Microbiology 9, 538-541 (1961) by F. C. Kull et al. The assay was carried out according to the method usually employed.

Tyromyces palustris [2] = assay: as above; details: potato dextrose agar, 25° C., 5 days
Text: as §1, §2, §3

Serpula lacrymans = assay: Wood preservation test JIS A-9201 (1991): impregnated Sugi sapwood, weathered, forcedly decayed for 12 weeks; details: weathering 10 cycles, 20° C., mean of 9 samples
Procedure: (1) According to the test method for wood preservation described in the Japan Industrial Standards [JIS A-9201 (1991)], each of the test compounds was dissolved to a defined concentration in methanol. The solution was impregnated under a reduced pressure into a Sugi (Japanese cedar) sapwood (2×2×1) cm and then air-dried. Weathering test was repeated 10 times in which one cycle of the treatment was stirring in water for 8 hours, and then heating for 16 hours at 60° C. The test material was placed on the flora of Serpula lacrymans which had been previously grown on a quartz sand medium (malt extract 2%, glucose 1%, peptone 0.3% and yeast 0.2%), and forcedly decayed at 20° C. for 12 weeks. From the difference between the dry weight of the test material before the test and that after test, the degree of decrease in weight was obtained. […] The test was carried out by use of 9 samples for each condition, and the values shown in Table 2 are the mean values calculated from 9 samples.

Coriolus versicolor [3] = assay: Wood preservative efficacy on impregnated Sugi sapwood: hyphal growth and maximum crushing strength; set-up: key: +: No hyphal growth was observed on the test material, and no difference was found in the maximum crushing strength from the healthy wood sample.; ±: A little hyphal growth was observed on the test material, or a little decrease was found in the maximum crushing strength.; −: Hyphal growth was observed on the test material, or clear decrease was found in the maximum crushing strength; details: 0.1 w/v % methanol solution impregnated; weathering twice; 26° C., 3 weeks
Procedure: (§4) Weathering test was repeated twice in which one cycle of the treatment was washing (about 2 liter per minute supply) with water for 5 hours, and then heating for 19 hours at 60° C. After dry air sterilization, the test samples were prepared. The test materials were placed on the flora of Coriolus versicolor which is a lignin-decomposing fungus, and of Tryomyces palustris which is a cellulose-decomposing fungus, and both of which are designated fungal species for assay of wood preservating effect. Both fungi had been previously grown on an agar medium (malt extract 2%, glucose 1% and peptone 0.5%). After the wood samples were forcedly deteriorated at 26° C. for 3 weeks, the effectiveness was determined from the degree of hyphal growth on the test material and the presence or absence of lowered maximum crushing strength. […] The wood preventive efficacy was judged by the following criteria. +: No hyphal growth was observed on the test material, and no difference was found in the maximum crushing strength from the healthy wood sample. ±: A little hyphal growth was observed on the test material, or a little decrease was found in the maximum crushing strength. −: Hyphal growth was observed on the test material, or clear decrease was found in the maximum crushing strength.

Tyromyces palustris [4] = assay: as above; set-up: key: +: No hyphal growth was observed on the test material, and no difference was found in the maximum crushing strength from the healthy wood sample.; ±: A little hyphal growth was observed on the test material, or a little decrease was found in the maximum crushing strength.; −: Hyphal growth was observed on the test material, or clear decrease was found in the maximum crushing strength; details: 0.1 w/v % methanol solution impregnated; weathering twice; 26° C., 3 weeks
Procedure: as §4

[5] = impregnant concentration 0.005 % in methanol
[6] = impregnant concentration 0.01 % in methanol

| MIC (ppm), single agent (Coriolus versicolor [1]) [ppm] | MIC (ppm), single agent (Tyromyces palustris [2]) [ppm] | Structure (SMILES) | Mean weight decrease by decay (%) (Serpula lacrymans; [5]) | Mean weight decrease by decay (%) (Serpula lacrymans; [6]) | Wood preventive efficacy, Coriolus versicolor (Coriolus versicolor [3]) | Wood preventive efficacy, Tyromyces palustris (Tyromyces palustris [4]) |
| --- | --- | --- | --- | --- | --- | --- |
| 6 | 2 | Clc1ccc(OCOCC#CI)cc1 [Control compound 1, 4-Chlorophenyl-3-iodopropargylformal, reference compound] | 18.6 | 9.7 |  |  |
| 15 | 25 | CCOC(=O)OCC(I)=C(Br)I [Control compound 2, 3-Bromo-2,3-diiodo-2-propenylethylcarbonate, reference compound] |  |  | + | + |
|  |  | CC(=O)Nc1cccc(NC(=O)c2cc(C)oc2C)c1 [Example 1, 2,5-Dimethylfuran-3-carboxy(3-acetylaminoanilide)] |  |  | ± | − |
|  |  | CNC(=O)c1cccc(NC(=O)c2cc(C)oc2C)c1 [Example 2, 2.5-Dimethylfuran-3-carboxy[3-(N-methylcarbamoyl)anilide]] |  |  | − | − |
|  |  | Cc1cc(C(=O)Nc2cccc(C(=O)N3CCCCC3)c2)c(C)o1 [Example 3, 2,5-Dimethylfuran-3-carboxy[3-(1-piperidylcarbonyl)anilide]] |  |  | − | − |
|  |  | Cc1cc(C(=O)Nc2cccc(C(=O)Nc3ccccc3)c2)c(C)o1 [Example 4, 2.5-Dimethylfuran-3-carboxyl[3-(N-phenylcarbamoyl)anilide]] |  |  | − | − |
|  |  | Cc1cc(C(=O)Nc2cccc(C(=O)OC(C)(C)C)c2)c(C)o1 [Example 5, 2,5-Dimethylfuran-3-carboxy(3-tert-butoxycarbonylanilide)] |  |  | − | − |
|  |  | COC(=O)c1cccc(NC(=O)c2cc(C)oc2C)c1 [Example 6, 2,5-Dimethylfuran-3-carboxy(3-methoxycarbonylanilide)] |  |  | + | + |
|  |  | Cc1cc(C(=O)Nc2cccc(C(=O)c3ccccc3)c2)c(C)o1 [Example 7, 2,5-Dimethylfuran-3-carboxy(3-benzoylanilide)] |  |  | + | − |
|  |  | Cc1cc(C(=O)Nc2cccc(NC(=O)c3ccccc3)c2)c(C)o1 [Example 8, 2,5-Dimethylfuran-3-carboxy(3-benzoylaminoanilide)] |  |  | ± | − |
|  |  | CCCCC(=O)Nc1cccc(NC(=O)c2cc(C)oc2C)c1 [Example 9, 2,5-Dimethylfuran-3-carboxy(3-valerylaminoanilide)] |  |  | − | − |
|  |  | Cc1cc(C(=O)Nc2cccc(NC(=O)C3CCCCC3)c2)c(C)o1 [Example 10, 2,5-Dimethylfuran-3-carboxy(3-cyclohexylcarbonylaminoanilide)] |  |  | + | − |
|  |  | COCc1cccc(NC(=O)c2cc(C)oc2C)c1 [Example 11, 2,5-Dimethylfuran-3-carboxy(3-methoxymethylanilide)] |  |  | + | ± |
|  |  | CCOCc1cccc(NC(=O)c2cc(C)oc2C)c1 [Example 12, 2,5-Dimethylfuran-3-carboxy(3-ethoxymethylanilide)] |  |  | ± | ± |
|  |  | Cc1cc(C(=O)Nc2cccc(COC(C)C)c2)c(C)o1 [Example 13, 2,5-Dimethylfuran-3-carboxy(3-isopropyloxymethylanilide)] |  |  | + | + |
|  |  | COc1ccc(Cc2cccc(NC(=O)c3cc(C)oc3C)c2)cc1 [Example 14, 2,5-Dimethylfuran-3-carboxy[3-(4-methoxybenzyl)anilide]] |  |  | + | + |
|  |  | COC(=O)C=Cc1cccc(NC(=O)c2cc(C)oc2C)c1 [Example 15, 2,5-Dimethylfuran-3-carboxy[3-(2-methoxycarbonylvinyl)anilide]] |  |  | + | − |
| 2.5 | 200 | CCc1cccc(NC(=O)c2cc(C)oc2C)c1 [Example 20, 2,5-Dimethylfuran-3-carboxy(3-ethylanilide)] | 0.1 | 0 | + | + |
| 10.0 | 200 | Cc1cc(C(=O)Nc2cccc(C(C)C)c2)c(C)o1 [Example 21, 2,5-Dimethylfuran-3-carboxy(3-isopropylanilide)] | 0 | 0 | + | + |
|  |  | CCCCCCc1cccc(NC(=O)c2cc(C)oc2C)c1 [Example 23, 2,5-Dimethylfuran-3-carboxy(3-hexylanilide)] |  |  | + | + |
|  |  | CCCCc1cccc(NC(=O)c2cc(C)oc2C)c1 [Example 24, 2,5-Dimethylfuran-3-carboxy(3-butylanilide)] |  |  | + | + |
|  |  | CCC(C)c1cccc(NC(=O)c2cc(C)oc2C)c1 (stereo not drawn) [Example 25, 2,5-Dimethylfuran-3-carboxy(3-sec-butylanilide)] |  |  | + | + |
|  |  | CCCCCc1cccc(NC(=O)c2cc(C)oc2C)c1 [Example 26, 2,5-Dimethylfuran-3-carboxy(3-pentylanilide)] |  |  | + | + |

| Structure (SMILES) | MIC (ppm), single agent (Coriolus versicolor [1]) [ppm] | MIC (ppm), single agent (Tyromyces palustris [2]) [ppm] | Mean weight decrease by decay (%) (Serpula lacrymans; [5]) | Mean weight decrease by decay (%) (Serpula lacrymans; [6]) | Wood preventive efficacy, Coriolus versicolor (Coriolus versicolor [3]) | Wood preventive efficacy, Tyromyces palustris (Tyromyces palustris [4]) |
| --- | --- | --- | --- | --- | --- | --- |
| CCCCNC(=O)OCC#CI [B] | 25 | 2.5 |  |  |  |  |
